Results reported in ChEMBL document CHEMBL3991601, “The target landscape of clinical kinase drugs” (Science, 2017).
The source made the active and inactive calls. Cut-off read from the data, not from the text of the source, for most assays here: actives have a measured Kd and inactives only a lower limit.

What was measured:
TGF-beta receptor type-1 = target: T1, TGF-beta receptor type-1 (Homo sapiens, UniProt P36897)
T1 sequence (P36897 whole entry): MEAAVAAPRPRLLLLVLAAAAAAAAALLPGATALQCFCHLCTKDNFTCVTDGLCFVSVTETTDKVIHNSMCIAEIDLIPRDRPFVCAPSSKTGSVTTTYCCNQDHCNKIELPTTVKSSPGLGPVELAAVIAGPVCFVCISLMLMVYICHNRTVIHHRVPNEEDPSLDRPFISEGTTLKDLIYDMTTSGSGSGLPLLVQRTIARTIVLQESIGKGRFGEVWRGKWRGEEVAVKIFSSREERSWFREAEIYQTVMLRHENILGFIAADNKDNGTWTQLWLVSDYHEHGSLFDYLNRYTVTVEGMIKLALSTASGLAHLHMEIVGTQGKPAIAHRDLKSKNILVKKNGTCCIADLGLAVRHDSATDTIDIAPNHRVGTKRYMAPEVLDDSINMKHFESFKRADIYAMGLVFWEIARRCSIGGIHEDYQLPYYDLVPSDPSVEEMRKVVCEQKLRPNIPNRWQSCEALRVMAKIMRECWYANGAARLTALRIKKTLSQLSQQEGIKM

[1] = target: T2, Mitogen-activated protein kinase kinase kinase 3 (Homo sapiens, UniProt Q99759)
T2 sequence (Q99759 whole entry): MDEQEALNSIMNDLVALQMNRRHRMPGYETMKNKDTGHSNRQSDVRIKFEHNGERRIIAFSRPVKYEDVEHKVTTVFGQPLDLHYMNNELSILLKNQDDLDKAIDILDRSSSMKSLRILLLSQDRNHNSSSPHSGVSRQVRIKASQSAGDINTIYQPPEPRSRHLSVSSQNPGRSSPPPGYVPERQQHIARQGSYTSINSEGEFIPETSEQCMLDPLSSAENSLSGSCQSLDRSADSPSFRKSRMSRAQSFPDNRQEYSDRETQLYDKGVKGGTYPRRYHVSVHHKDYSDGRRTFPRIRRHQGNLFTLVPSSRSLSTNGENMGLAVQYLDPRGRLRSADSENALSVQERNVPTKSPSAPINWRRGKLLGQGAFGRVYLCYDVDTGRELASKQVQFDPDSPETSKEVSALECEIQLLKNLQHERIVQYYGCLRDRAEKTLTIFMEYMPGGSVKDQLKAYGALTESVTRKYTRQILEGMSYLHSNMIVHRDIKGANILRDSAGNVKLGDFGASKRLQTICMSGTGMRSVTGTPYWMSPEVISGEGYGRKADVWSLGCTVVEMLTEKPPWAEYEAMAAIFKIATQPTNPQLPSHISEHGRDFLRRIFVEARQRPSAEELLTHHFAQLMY

[2] = target: T3, Mitogen-activated protein kinase kinase kinase 2 (Homo sapiens, UniProt Q9Y2U5)
T3 sequence (Q9Y2U5 whole entry): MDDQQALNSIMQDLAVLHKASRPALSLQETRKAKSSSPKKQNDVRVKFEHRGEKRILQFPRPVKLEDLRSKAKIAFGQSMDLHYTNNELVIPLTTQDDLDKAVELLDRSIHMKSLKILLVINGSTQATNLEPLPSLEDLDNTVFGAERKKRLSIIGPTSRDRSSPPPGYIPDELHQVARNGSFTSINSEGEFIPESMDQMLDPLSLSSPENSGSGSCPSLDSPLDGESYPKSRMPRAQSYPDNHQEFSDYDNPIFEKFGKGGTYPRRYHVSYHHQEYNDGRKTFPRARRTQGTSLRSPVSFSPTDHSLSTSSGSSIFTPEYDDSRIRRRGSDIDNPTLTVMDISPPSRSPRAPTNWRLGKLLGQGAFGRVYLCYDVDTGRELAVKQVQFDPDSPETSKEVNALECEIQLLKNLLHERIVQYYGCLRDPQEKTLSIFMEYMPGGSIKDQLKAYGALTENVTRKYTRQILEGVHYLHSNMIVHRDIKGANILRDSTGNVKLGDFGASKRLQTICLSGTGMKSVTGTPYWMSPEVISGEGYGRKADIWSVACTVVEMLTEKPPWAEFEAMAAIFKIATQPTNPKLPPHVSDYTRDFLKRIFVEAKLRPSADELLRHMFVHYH

[3] = target: Interleukin-1 receptor-associated kinase 1 (Homo sapiens, UniProt P51617)
[4] = target: MAP/microtubule affinity-regulating kinase 3 (Homo sapiens, UniProt P27448)
[5] = target: T4, Interleukin-1 receptor-associated kinase 3 (Homo sapiens, UniProt Q9Y616)
T4 sequence (Q9Y616 whole entry): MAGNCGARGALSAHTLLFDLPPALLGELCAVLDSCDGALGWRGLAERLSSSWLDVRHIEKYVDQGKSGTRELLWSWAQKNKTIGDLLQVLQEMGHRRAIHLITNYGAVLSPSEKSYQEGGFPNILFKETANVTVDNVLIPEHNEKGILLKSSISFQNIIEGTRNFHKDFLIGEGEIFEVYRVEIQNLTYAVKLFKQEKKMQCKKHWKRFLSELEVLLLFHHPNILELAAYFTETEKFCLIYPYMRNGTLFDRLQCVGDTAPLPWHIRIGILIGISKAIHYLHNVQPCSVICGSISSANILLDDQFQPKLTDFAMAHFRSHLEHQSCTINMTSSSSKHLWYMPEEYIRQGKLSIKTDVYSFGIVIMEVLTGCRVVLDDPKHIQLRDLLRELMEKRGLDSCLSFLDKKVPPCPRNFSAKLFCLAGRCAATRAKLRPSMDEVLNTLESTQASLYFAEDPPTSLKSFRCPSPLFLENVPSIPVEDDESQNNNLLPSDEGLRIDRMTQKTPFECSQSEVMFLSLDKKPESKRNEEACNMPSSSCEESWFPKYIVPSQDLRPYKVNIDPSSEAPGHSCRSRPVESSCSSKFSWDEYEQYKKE

[6] = target: Calcium/calmodulin-dependent protein kinase type II subunit delta (Homo sapiens, UniProt Q13557)
[7] = target: Maternal embryonic leucine zipper kinase (Homo sapiens, UniProt Q14680)
[8] = target: Ras-related protein Rab-6A (Homo sapiens, UniProt P20340)
Note: in the data inactive means no Kd found up to 30 µM.

Chain of MAP/microtubule affinity-regulating kinase 3 (P27448 whole entry): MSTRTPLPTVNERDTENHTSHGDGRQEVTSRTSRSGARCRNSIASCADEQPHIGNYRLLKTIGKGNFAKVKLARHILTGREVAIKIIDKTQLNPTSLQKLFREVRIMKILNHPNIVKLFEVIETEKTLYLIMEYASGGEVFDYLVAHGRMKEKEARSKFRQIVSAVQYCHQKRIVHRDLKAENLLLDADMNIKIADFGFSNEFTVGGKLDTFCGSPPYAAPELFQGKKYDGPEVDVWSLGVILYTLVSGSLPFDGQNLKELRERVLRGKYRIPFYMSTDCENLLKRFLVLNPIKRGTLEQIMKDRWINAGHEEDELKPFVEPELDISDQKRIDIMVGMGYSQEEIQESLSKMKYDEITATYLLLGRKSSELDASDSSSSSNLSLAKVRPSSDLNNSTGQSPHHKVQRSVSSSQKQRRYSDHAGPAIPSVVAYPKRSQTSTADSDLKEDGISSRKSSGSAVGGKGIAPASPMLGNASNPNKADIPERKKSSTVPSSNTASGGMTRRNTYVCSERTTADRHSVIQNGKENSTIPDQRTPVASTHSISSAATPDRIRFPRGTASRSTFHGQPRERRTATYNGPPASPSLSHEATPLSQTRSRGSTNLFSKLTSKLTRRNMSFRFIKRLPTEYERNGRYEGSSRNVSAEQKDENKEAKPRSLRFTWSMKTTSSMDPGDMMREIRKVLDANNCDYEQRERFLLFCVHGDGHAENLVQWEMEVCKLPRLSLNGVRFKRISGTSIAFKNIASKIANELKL
Chain of Calcium/calmodulin-dependent protein kinase type II subunit delta (Q13557 whole entry): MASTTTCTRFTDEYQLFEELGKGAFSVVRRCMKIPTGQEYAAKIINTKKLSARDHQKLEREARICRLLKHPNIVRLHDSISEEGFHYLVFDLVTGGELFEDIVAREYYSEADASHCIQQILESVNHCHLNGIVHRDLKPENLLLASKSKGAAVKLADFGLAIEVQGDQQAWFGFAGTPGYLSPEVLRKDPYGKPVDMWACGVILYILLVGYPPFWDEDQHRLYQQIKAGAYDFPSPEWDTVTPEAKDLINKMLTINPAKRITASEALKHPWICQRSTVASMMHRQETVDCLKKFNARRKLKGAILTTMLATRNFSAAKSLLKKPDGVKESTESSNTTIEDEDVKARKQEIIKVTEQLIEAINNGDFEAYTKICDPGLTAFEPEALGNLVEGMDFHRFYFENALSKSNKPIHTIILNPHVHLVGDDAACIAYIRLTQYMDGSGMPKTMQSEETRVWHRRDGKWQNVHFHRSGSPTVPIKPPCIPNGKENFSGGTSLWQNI
Chain of Maternal embryonic leucine zipper kinase (Q14680 whole entry): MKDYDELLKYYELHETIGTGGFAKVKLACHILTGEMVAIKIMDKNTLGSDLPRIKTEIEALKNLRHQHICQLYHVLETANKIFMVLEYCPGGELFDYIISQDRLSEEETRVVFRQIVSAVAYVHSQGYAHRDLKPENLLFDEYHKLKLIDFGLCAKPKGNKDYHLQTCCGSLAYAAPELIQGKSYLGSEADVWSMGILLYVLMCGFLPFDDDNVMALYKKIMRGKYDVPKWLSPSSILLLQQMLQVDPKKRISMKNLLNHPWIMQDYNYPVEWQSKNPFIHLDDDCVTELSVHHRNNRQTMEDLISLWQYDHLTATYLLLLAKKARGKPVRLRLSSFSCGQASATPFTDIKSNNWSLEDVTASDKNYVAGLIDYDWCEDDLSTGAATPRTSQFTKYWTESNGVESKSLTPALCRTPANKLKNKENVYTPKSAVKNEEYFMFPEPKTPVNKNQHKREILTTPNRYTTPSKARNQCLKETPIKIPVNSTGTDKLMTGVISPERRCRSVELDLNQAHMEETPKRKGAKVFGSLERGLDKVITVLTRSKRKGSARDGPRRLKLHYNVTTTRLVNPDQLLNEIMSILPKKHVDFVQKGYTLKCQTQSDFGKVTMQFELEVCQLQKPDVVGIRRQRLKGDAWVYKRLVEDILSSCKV
Chain of Ras-related protein Rab-6A (P20340 whole entry): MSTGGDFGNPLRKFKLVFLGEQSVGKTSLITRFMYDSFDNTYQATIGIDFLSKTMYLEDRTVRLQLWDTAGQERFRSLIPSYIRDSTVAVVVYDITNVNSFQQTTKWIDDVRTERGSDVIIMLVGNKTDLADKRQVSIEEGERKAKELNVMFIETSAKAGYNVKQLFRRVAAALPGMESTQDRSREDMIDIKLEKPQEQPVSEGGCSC
Chain of Interleukin-1 receptor-associated kinase 1 (P51617 whole entry): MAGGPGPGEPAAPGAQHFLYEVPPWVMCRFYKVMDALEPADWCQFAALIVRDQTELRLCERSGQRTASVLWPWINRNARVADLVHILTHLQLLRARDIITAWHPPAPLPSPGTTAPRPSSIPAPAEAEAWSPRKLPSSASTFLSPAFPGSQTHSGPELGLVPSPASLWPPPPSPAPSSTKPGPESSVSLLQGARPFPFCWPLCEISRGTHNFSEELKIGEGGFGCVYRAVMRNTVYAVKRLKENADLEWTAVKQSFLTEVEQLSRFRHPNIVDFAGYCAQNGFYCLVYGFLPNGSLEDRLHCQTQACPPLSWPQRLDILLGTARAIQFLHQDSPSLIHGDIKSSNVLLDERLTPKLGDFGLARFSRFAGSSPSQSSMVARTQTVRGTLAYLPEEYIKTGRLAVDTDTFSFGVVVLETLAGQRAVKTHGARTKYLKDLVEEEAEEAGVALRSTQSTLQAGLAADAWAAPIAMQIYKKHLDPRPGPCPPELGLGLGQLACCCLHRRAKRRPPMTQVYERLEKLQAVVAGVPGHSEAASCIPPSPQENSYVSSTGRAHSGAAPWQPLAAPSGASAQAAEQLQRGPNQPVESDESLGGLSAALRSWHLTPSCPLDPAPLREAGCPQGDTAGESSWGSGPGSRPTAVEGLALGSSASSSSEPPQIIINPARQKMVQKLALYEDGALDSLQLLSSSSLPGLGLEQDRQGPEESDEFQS

Row | Kd (TGF-beta receptor type-1) | Kd [1] | Kd [2] | Kd [3] | Kd [4] | Kd [5] | Kd [6] | Kd [7] | Kd [8] | Compound
1 | > 30 µM (inactive) | > 30 µM (inactive) | > 30 µM (inactive) | > 30 µM (inactive) | > 30 µM (inactive) | > 30 µM (inactive) | > 30 µM (inactive) | > 30 µM (inactive) | > 30 µM (inactive) | COc1cc2nccc(Oc3ccc(NC(=O)Nc4cc(C)on4)c(Cl)c3)c2cc1OC [TIVOZANIB]
2 | > 30 µM (inactive) | > 30 µM (inactive) | > 30 µM (inactive) | > 30 µM (inactive) | > 30 µM (inactive) | > 30 µM (inactive) | > 30 µM (inactive) | > 30 µM (inactive) | > 30 µM (inactive) | CC(=O)Nc1cccc(-n2c(=O)n(C3CC3)c(=O)c3c(Nc4ccc(I)cc4F)n(C)c(=O)c(C)c32)c1 [TRAMETINIB]
3 | > 30 µM (inactive) | > 30 µM (inactive) | > 30 µM (inactive) | > 30 µM (inactive) | > 30 µM (inactive) | > 30 µM (inactive) | > 30 µM (inactive) | > 30 µM (inactive) | > 30 µM (inactive) | CC(C)Nc1cc(-c2c[nH]c(C(=O)N[C@H](CO)c3cccc(Cl)c3)c2)c(Cl)cn1 [ULIXERTINIB]
4 | > 30 µM (inactive) | > 30 µM (inactive) | > 30 µM (inactive) | > 30 µM (inactive) | > 30 µM (inactive) | > 30 µM (inactive) | > 30 µM (inactive) | > 30 µM (inactive) | > 30 µM (inactive) | CCCS(=O)(=O)Nc1ccc(F)c(C(=O)c2c[nH]c3ncc(-c4ccc(Cl)cc4)cc23)c1F [VEMURAFENIB]
5 | > 30 µM (inactive) | > 30 µM (inactive) | > 30 µM (inactive) | > 30 µM (inactive) | > 30 µM (inactive) | > 30 µM (inactive) | > 30 µM (inactive) | > 30 µM (inactive) | > 30 µM (inactive) | CC[C@@H]1C(=O)N(C)c2cnc(Nc3ccc(C(=O)N[C@H]4CC[C@H](N5CCN(CC6CC6)CC5)CC4)cc3OC)nc2N1C(C)C [VOLASERTIB]
6 | > 30 µM (inactive) | > 30 µM (inactive) | > 30 µM (inactive) | > 30 µM (inactive) | > 30 µM (inactive) | > 30 µM (inactive) | > 30 µM (inactive) | > 30 µM (inactive) | > 30 µM (inactive) | CCn1c(=O)c(-c2cc[nH]n2)cc2c(C)nc(N)nc21 [VOXTALISIB]
7 | > 30 µM (inactive) | > 30 µM (inactive) | > 30 µM (inactive) | > 30 µM (inactive) | 1.61 µM (active) | > 30 µM (inactive) | > 30 µM (inactive) | > 30 µM (inactive) | > 30 µM (inactive) | O=C(Nc1ccc(-c2ccnc(Nc3ccc(N4CCOCC4)cc3)n2)cc1)C1CCCN1 (stereo not drawn) [XL-019]
